Literature values in US20250325256A1, “LIPID PATCH” (SENSACH AB, priority 2021, published 2025).

Settings: cited from earlier work

## CCCCCCCC/C=C\CCCCCCCC(=O)OCC(O)CO (stereo not shown) [GMO, Glycerol monooleate]
  solubility in water: around 10^−6 M
